Here are results for five compounds from US20030229027A1, “Stabilized natural cannabinoid formulation” (priority 2002, published 2003).

Read-outs that look alike come from different tables or passages of the source.

The conditions of series [1]: cited from earlier work; for Tg / Tg′: comparison with inulin; for Glass transition temperature: at dry conditions.
Series [2] in a line: Dynamic vapour sorption (gravimetric sorption analyser). In kind it is physicochemical. To be noted: after exposure to 90% RH. The protocol:
Water sorption isotherm of freeze dried inulin was measured at ambient pressures and 25° C. using a gravimetric sorption analyser (DVS-1000 Water Sorption Instrument, Surface Measurement Systems Limited, London, UK). The uptake of water by inulin was measured from 0% to 90% RH with steps of 10% RH. The initial sample weight was about 10 mg. It was assumed that equilibrium was reached when the change of weight was less than 0.9 μg during a ten minutes period.
The water sorption of THC was determined according to the procedure described above for inulin. The THC was dissolved in methanol before it was put in the DVS-1000 instrument. During initial exposure to a dry nitrogen flow, the methanol was evaporated. As soon as about 90% of the solvent was evaporated, additional THC solution was added to the sample-cup. This procedure was repeated until 15 mg of pure THC was present in the sample cup. After the evaporation of the last methanol, the relative humidity was increased from 0% to 90% in steps of 10%.

Series [3] in a line: Modulated DSC, thermal behavior of THC. In kind it is physicochemical. As to conditions: mDSC thermogram of THC. The procedure:
The thermal behavior of THC was determined by mDSC. A modulation amplitude of ±0.318° C. every 60 sec and a heating rate of 2° C./min was used. During measurement, the sample cell was purged with nitrogen at a flow rate of 35 mL/min. A blob of pure THC was put in the sample cup. After initial cooling the sample was first scanned till 50° C. In this way the blob was able to spread over the entire bottom of the sample pan, thereby increasing the surface available for heat transfer during the second scan. The sample was then cooled until −40° C. and heated to 350° C.

A short description of series [4]: Stability (no clouding) of water-alcohol solutions of inulin and THC. In kind it is physicochemical. To be noted: 0.4% w/v THC. The procedure:
The suitable volume ratio of water/alcohol was investigated by testing the stability of 10% w/v inulin solutions with different ratio's water/alcohol. Inulin was dissolved in different amounts of water (3 to 7 mL). Subsequently different amounts of alcohol were added until a total volume of 10 mL. For THC the same procedure was followed, but now water was added to the alcoholic THC solution. The solution was judged as sufficiently stable if no clouding appeared within the time of processing. For spray drying batches were made which required up to half an hour of spraying. Therefore the solution should be clear for at least that period of time. For freeze drying the solution should be clear until it is frozen. In this case ten minutes is sufficient. Furthermore, it was investigated whether the aqueous inulin solution could be added slowly or should be mixed instantaneously.
The three relevant alcohol's were added to a solution of inulin in water. It was determined for how long the obtained solution stayed clear. After 1 g of inulin was dissolved in 4 mL water, water and/or alcohol was added to a total volume of 10 mL, yielding a 10% w/v solution. The largest concentration of alcohol was thus obtained. THC was dissolved in the alcohol of interest. Subsequently, alcohol and/or water was added to give 0.4% w/v solutions.

The nature of series [5]: THC-analysis control experiments (degradation of THC in methanol). In kind it is physicochemical.
A short description of series [6]: Solubility of THC in water. As to conditions: 20 °C, thermodynamic from solid, stirred 3 days.

For `OC[C@H]1O[C@@](CO)(O[C@H]2O[C@H](CO)[C@@H](O)[C@H](O)[C@H]2O)[C@@H](O)[C@@H]1O` [sucrose], in series [1], the Tg is 76 °C and the “Tg′” value was −39 °C.

With `OC[C@@H](O)[C@@H](O[C@@H]1O[C@H](CO)[C@H](O)[C@H](O)[C@H]1O)[C@H](O)[C@@H](O)CO` [lactitol], the Glass transition temperature in series [1] is 33 °C.

`CCCCCc1cc(O)c2c(c1)OC(C)(C)[C@@H]1CCC(C)=C[C@@H]21` [THC, Δ^9-tetrahydrocannabinol] showed a Water absorbed in series [2] of 0.3%. The “Onset of endothermic peak (evaporation)” value in series [3] stood at 200 °C. For the same compound, in series [3], the Tg is 10 °C. Also, the “% v/v water for a stable solution” value is reported as not above 53% maximum % v/v in series [4] (EtOH (ethanol)), not above 63% maximum % v/v in series [4] (TBA (t-butanol)) and not above 62% maximum % v/v in series [4] (n-PrOH (n-propanol)). In addition, the “Degradation of THC calibration solutions” value in series [5] (solutions in methanol, 2 weeks at 4° C.) is given as “no significant degradation”. Moreover, the “Degradation of THC by ultrasonic treatment” value in series [5] (ten minutes ultrasonic treatment in methanol) is “no degradation”. In series [5] (two days of extraction in methanol), the “Degradation of THC during extraction” value was “no significant degradation”. In addition, the solubility at 3 days in series [6] was less than 1 µg/mL.

`OC[C@H]1O[C@H](O[C@H]2O[C@H](CO)[C@@H](O)[C@H](O)[C@H]2O)[C@H](O)[C@@H](O)[C@@H]1O` [trehalose]: in series [1], the Tg was 120 °C and the “Tg′” value is −36 °C.

Regarding `OC[C@@H](O)[C@@H](O[C@H]1O[C@H](CO)[C@@H](O)[C@H](O)[C@H]1O)[C@H](O)[C@@H](O)CO` [Maltitol, maltitol], the Glass transition temperature in series [1] was 44 °C.
